# Reference: patent publication US20070232615A1, “Chemical Compounds” (priority 2004, published 2007)
# System: HIV
# Experiment: HOS HIV infectivity assay (Table 2, strain not given)
# Format: cell-based
# Settings: Human immunodeficiency virus 1, read-out: Activity Level
# Procedure: HOS HIV-1 Infectivity Assay
# Compounds were profiled against two HIV-1 viruses, the M-tropic (CCR5 utilizing) Ba-L strain and the T-tropic (CXCR4 utilizing) IIIB strain. Both viruses were propagated in human peripheral blood lymphocytes. Compounds were tested for there ability to block infection of the HOS cell line (expressing hCXCR4/hCCR5/hCD4/pHIV-LTR-luciferase) by either HIV-1 Ba-L or HIV-1 IIIB. Compound cytotoxicity was also examined in the absence of virus addition.
# HOS HIV-1 Infectivity Assay Format
# HOS cells (expressing hCXCR4/hCCR5/hCD4/pHIV-LTR-luciferase) were harvested and diluted in Dulbeccos modified Eagles media supplemented with 2% FCS and non-essential amino acid to a concentration of 60,000 cells/ml. The cells were plated into 96-well plates (100 ul per well) and the plates were placed in a tissue culture incubator (37° C.; 5% CO2/95% air) for a period of 24 h.
# Subsequently, 50 ul of the desired drug solution (4 times the final concentration) was added to each well and the plates were returned to the tissue culture incubator (37° C.; 5% CO2/95% air) for 1 h. Following this incubation 50 ul of diluted virus was added to each well (approximately 2 million RLU per well of virus). The plates were returned to the tissue culture incubator (37° C.; 5% CO2/95% air) and were incubated for a further 96 h.
# Following this incubation the endpoint for the virally infected cultures was quantified following addition of Steady-Glo Luciferase assay system reagent (Promega, Madison, Wis.). Cell viability or non-infected cultures was measured using a CellTiter-Glo luminescent cell viability assay system (Promega, Madison, Wis.). All luminescent readouts are performed on a Topcount luminescence detector (Packard, Meridien, Conn.).
row,SMILES,IC50 [µM]
1,"CN(Cc1cn2c(NC(=O)c3ccncc3)cccc2n1)C1CCCc2cccnc21 (centres unmarked) [Example 45, N-(2-{[Methyl(5,6,7,8-tetrahydro-8-quinolinyl)amino]methyl}imidazo[1,2-a]pyridin-5-yl)-4-pyridinecarboxamide]",0.5 to 10
2,"CCCN(Cc1cn2c(N3CCN(C)CC3)cccc2n1)[C@H]1CCCc2cccnc21 [Example 56, (8S)—N-{[5-(4-Methyl-1-piperazinyl)imidazo[1,2-a]pyridin-2-yl]methyl}-N-propyl-5,6,7,8-tetrahydro-8-quinolinamine]",< 0.1
3,"CN(C)Cc1cccc(-c2cccc3nc(CN(C)C4CCCc5cccnc54)cn23)c1 (centres unmarked) [Example 41, N-[(5-{3-[(Dimethylamino)methyl]phenyl}imidazo[1,2-a]pyridin-2-yl)methyl]-N-methyl-5,6,7,8-tetrahydro-8-quinolinamine]",0.1 to 0.5
4,"CN(Cc1cn2c(N3CC(N)C3)cccc2n1)C1CCCc2cccnc21 (centres unmarked) [Example 25, N-{[5-(3-Amino-1-azetidinyl)imidazo[1,2-a]pyridin-2-yl]methyl}-N-methyl-5,6,7,8-tetrahydro-8-quinolinamine]",< 0.1
5,"COc1cccc(CN(Cc2cn3c(N4CCN(C)CC4)cccc3n2)[C@H]2CCCc3cccnc32)c1 [Example 73, (8S)—N-{[3-(Methyloxy)phenyl]methyl}-N-{[5-(4-methyl-1-piperazinyl)imidazo[1,2-a]pyridin-2-yl]methyl}-5,6,7,8-tetrahydro-8-quinolinamine]",< 0.1
6,"CN(C)[C@@H]1CCN(c2cccc3nc(CN(CC4CC4)[C@H]4CCCc5cccnc54)cn23)C1 [Example 99, (8S)—N-(Cyclopropylmethyl)-N-({5-[(3R)-3-(dimethylamino)-1-pyrrolidinyl]imidazo[1,2-a]pyridin-2-yl}methyl)-5,6,7,8-tetrahydro-8-quinolinamine]",< 0.1
7,"CCCCN(Cc1cn2c(N3CCN(C)CC3)cccc2n1)[C@H]1CCCc2cccnc21 [Example 58, (8S)—N-Butyl-N-{[5-(4-methyl-1-piperazinyl)imidazo[1,2-a]pyridin-2-yl]methyl}-5,6,7,8-tetrahydro-8-quinolinamine]",< 0.1
8,"CN1CCC(N(C)c2cccc3nc(CN(C)C4CCCc5cccnc54)cn23)CC1 (centres unmarked) [Example 28, N-Methyl-N-({5-[methyl(1-methyl-4-piperidinyl)amino]imidazo[1,2-a]pyridin-2-yl}methyl)-5,6,7,8-tetrahydro-8-quinolinamine]",0.1 to 0.5
9,"CN1CCC(N(C)c2cccc3nc(CN(C)[C@H]4CCCc5cccnc54)cn23)CC1 [Example 87, (8S)—N-Methyl-N-({5-[methyl(1-methyl-4-piperidinyl)amino]imidazo[1,2-a]pyridin-2-yl}methyl)-5,6,7,8-tetrahydro-8-quinolinamine]",< 0.1
10,"CC(C)N(Cc1cn2c(N3CCN(C)CC3)cccc2n1)[C@H]1CCCc2cccnc21 [Example 55, (8S)—N-(1-Methylethyl)-N-{[5-(4-methyl-1-piperazinyl)imidazo[1,2-a]pyridin-2-yl]methyl}-5,6,7,8-tetrahydro-8-quinolinamine]",< 0.1
11,"CN(Cc1cn2c(N3CC[C@@H](N)C3)cccc2n1)C1CCCc2cccnc21 (stereo partly drawn) [Example 27, N-({5-[(3R)-3-Amino-1-pyrrolidinyl]imidazo[1,2-a]pyridin-2-yl}methyl)-N-methyl-5,6,7,8-tetrahydro-8-quinolinamine]",< 0.1
12,"FC(F)(F)CN(Cc1cn2c(N3CCNCC3)cccc2n1)C1CCCc2cccnc21 (centres unmarked) [Example 22, N-{[5-(1-piperazinyl)imidazo[1,2-a]pyridin-2-yl]methyl}-N-(2,2,2-trifluoroethyl)-5,6,7,8-tetrahydro-8-quinolinamine]",0.1 to 0.5
13,"CN1CCN(c2cccc3nc(CNC4CCCc5cccnc54)cn23)CC1 (centres unmarked) [Example 39, N-{[5-(4-Methyl-1-piperazinyl)imidazo[1,2-a]pyridin-2-yl]methyl}-5,6,7,8-tetrahydro-8-quinolinamine]",< 0.1

# Further lines, results first:
row,IC50 [µM],SMILES
1,0.5 to 10,"CN(Cc1cn2c(N3CCOCC3)cccc2n1)C1CCCc2cccnc21 (centres unmarked) [Example 20, N-Methyl-N-{[5-(4-morpholinyl)imidazo[1,2-a]pyridin-2-yl]methyl}-5,6,7,8-tetrahydro-8-quinolinamine]"
2,< 0.1,"CN1CCN(c2cccc3nc(CN(C)C4CCc5cccnc54)cn23)CC1 (centres unmarked) [Example 46, N-Methyl-N-{[5-(4-methyl-1-piperazinyl)imidazo[1,2-a]pyridin-2-yl]methyl}-6,7-dihydro-5H-cyclopenta[b]pyridin-7-amine]"
3,0.1 to 0.5,"CN1CCN(c2cccc3nc(CN(Cc4ccccc4C(F)(F)F)[C@H]4CCCc5cccnc54)cn23)CC1 [Example 69, (8S)—N-{[5-(4-Methyl-1-piperazinyl)imidazo[1,2-a]pyridin-2-yl]methyl}-N-{[2-(trifluoromethyl)phenyl]methyl}-5,6,7,8-tetrahydro-8-quinolinamine]"
4,< 0.1,"CN(Cc1cn2c(OCCN3CCCCC3)cccc2n1)[C@H]1CCCc2cccnc21 [Example 106, (8S)—N-Methyl-N-[(5-{[2-(1-piperidinyl)ethyl]oxy}imidazo[1,2-a]pyridin-2-yl)methyl]-5,6,7,8-tetrahydro-8-quinolinamine]"
5,< 0.1,"CNC1CCN(c2cccc3nc(CN(C)C4CCCc5cccnc54)cn23)CC1 (centres unmarked) [Example 36, N-Methyl-N-({5-[4-(methylamino)-1-piperidinyl]imidazo[1,2-a]pyridin-2-yl}methyl)-5,6,7,8-tetrahydro-8-quinolinamine]"
6,< 0.1,"CCN(Cc1cn2c(N3CCN(C)CC3)cccc2n1)[C@H]1CCCc2cccnc21 [Example 54, (8S)—N-Ethyl-N-{[5-(4-methyl-1-piperazinyl)imidazo[1,2-a]pyridin-2-yl]methyl}-5,6,7,8-tetrahydro-8-quinolinamine]"
7,< 0.1,"CN(C)[C@H]1CCN(c2cccc3nc(CN(C)[C@H]4CCCc5cccnc54)cn23)C1 [Example 91, (8S)—N-({5-[(3S)-3-(Dimethylamino)-1-pyrrolidinyl]imidazo[1,2-a]pyridin-2-yl}methyl)-N-methyl-5,6,7,8-tetrahydro-8-quinolinamine]"
8,< 0.1,"CN1CCCN(c2cccc3nc(CN(C)[C@H]4CCCc5cccnc54)cn23)CC1 [Example 85, (8S)—N-Methyl-N-{[5-(4-methylhexahydro-1H-1,4-diazepin-1-yl)imidazo[1,2-a]pyridin-2-yl]methyl}-5,6,7,8-tetrahydro-8-quinolinamine]"
9,0.1 to 0.5,"COc1ccc([C@H](C)N(Cc2cn3c(N4CC[C@@H](N(C)C)C4)cccc3n2)[C@H]2CCCc3cccnc32)cc1 [Example 95, (8S)—N-({5-[(3R)-3-(Dimethylamino)-1-pyrrolidinyl]imidazo[1,2-a]pyridin-2-yl}methyl)-N-{(1S)-1-[4-(methyloxy)phenyl]ethyl}-5,6,7,8-tetrahydro-8-quinolinamine]"
10,< 0.1,"CN1CCN(c2cccc3nc(CN(Cc4cccc(Br)c4)[C@H]4CCCc5cccnc54)cn23)CC1 [Example 64, (8S)—N-[(3-Bromophenyl)methyl]-N-{[5-(4-methyl-1-piperazinyl)imidazo[1,2-a]pyridin-2-yl]methyl}-5,6,7,8-tetrahydro-8-quinolinamine]"
11,< 0.1,"CN1CCN(c2cccc3nc(CN(C4CC4)C4CCCc5cccnc54)cn23)CC1 (centres unmarked) [Example 34, N-Cyclopropyl-N-{[5-(4-methyl-1-piperazinyl)imidazo[1,2-a]pyridin-2-yl]methyl}-5,6,7,8-tetrahydro-8-quinolinamine]"
12,< 0.1,"Cc1cccc(CN(Cc2cn3c(N4CCN(C)CC4)cccc3n2)[C@H]2CCCc3cccnc32)c1 [Example 67, (8S)—N-[(3-Methylphenyl)methyl]-N-{[5-(4-methyl-1-piperazinyl)imidazo[1,2-a]pyridin-2-yl]methyl}-5,6,7,8-tetrahydro-8-quinolinamine]"
13,< 0.1,"CCN(Cc1cn2c(N3CC[C@@H](N(C)C)C3)cccc2n1)[C@H]1CCCc2cccnc21 [Example 96, (8S)—N-({5-[(3R)-3-(Dimethylamino)-1-pyrrolidinyl]imidazo[1,2-a]pyridin-2-yl}methyl)-N-ethyl-5,6,7,8-tetrahydro-8-quinolinamine]"
14,< 0.1,"CN1CCC(N(C)c2cccc3nc(CN(C)C4CCCc5cccnc54)cn23)C1 (centres unmarked) [Example 29, N-Methyl-N-({5-[methyl(1-methyl-3-pyrrolidinyl)amino]imidazo[1,2-a]pyridin-2-yl}methyl)-5,6,7,8-tetrahydro-8-quinolinamine]"
15,< 0.1,"Cc1ccccc1CN(Cc1cn2c(N3CCN(C)CC3)cccc2n1)[C@H]1CCCc2cccnc21 [Example 66, (8S)—N-[(2-Methylphenyl)methyl]-N-{[5-(4-methyl-1-piperazinyl)imidazo[1,2-a]pyridin-2-yl]methyl}-5,6,7,8-tetrahydro-8-quinolinamine]"
16,< 0.1,"CCN(CC)[C@@H]1CCN(c2cccc3nc(CN(C)[C@H]4CCCc5cccnc54)cn23)C1 [Example 93, (8S)—N-({5-[(3R)-3-(Diethylamino)-1-pyrrolidinyl]imidazo[1,2-a]pyridin-2-yl}methyl)-N-methyl-5,6,7,8-tetrahydro-8-quinolinamine]"
